The values that follow come from patent US11286268B1, “EIF4E-inhibiting compounds and methods” (EFFECTOR THERAPEUTICS, INC., priority 2019, dated 2022).

Each structure is given as a SMILES string. Like-named read-outs stand apart in the source and are kept apart here. Where only a bound is given, the exact number is not on record here.

For the assay, the target named is recombinant eIF4E (Homo sapiens (Human), UniProt P06730). As to the kind of experiment: Fluorescence polarization competition assay for eIF4E binding potency. Here is the method: Compounds were screened for eIF4E binding potency using a fluorescence polarization competition assay. All binding reactions were performed in fluorescence polarization buffer (FPB) containing 20 mM Tris pH 7.5, 100 mM NaCl, 1 mM DTT, and 0.02% Tween-20. Final binding reactions contained 75 nM recombinant eIF4E (Beryllium, custom order), 20 nM EDA-m^7GDP-ATTO-550 (Jena Bioscience, NU-827-550) and varying concentrations of the inhibitory compound of interest. Final DMSO concentration in each reaction was 1%.
recombinant eIF4E, sequence (P06730 whole entry): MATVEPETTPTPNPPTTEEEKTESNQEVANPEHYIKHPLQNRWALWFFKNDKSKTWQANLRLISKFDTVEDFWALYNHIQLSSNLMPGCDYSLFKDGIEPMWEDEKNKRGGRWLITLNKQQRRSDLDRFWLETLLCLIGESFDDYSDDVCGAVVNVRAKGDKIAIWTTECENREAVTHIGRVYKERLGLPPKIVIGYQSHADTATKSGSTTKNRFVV
eIF4E protein was pre-incubated with EDA-m^7GDP-ATTO-550 in FPB at 2× concentrations for 5 minutes prior to the addition of compounds. Compounds (100×) were prepared using 3-fold serial dilutions in 100% DMSO, and subsequently diluted 1:50 in FPB to produce 2× stocks. 50 μl of 2× eIF4E/EDA-m^7GDP-ATTO-550 were transferred to the wells of a 96-well half-area black flat bottom polystyrene plate. 50 μl of 2× test compound were added, and binding reactions were allowed to equilibrate for 30 minutes at room temperature while protected from light. The fluorescent polarization signal was detected using a Victor 2 multi-label counter (Perkin Elmer) and the concentration necessary to achieve inhibition of eIF4E/EDA-m^7GDP-ATTO-550 binding by 50% (IC50) was calculated using data from an 8-point compound dilution series.
In Table 4A, IC50 values of less than 0.05 μM are labelled as “+++”, from 1 to 0.05 μM are labelled as “++”, and greater than 1 μM are labelled as “+”. ND=not determined.

Where [1] appears, read: fluorescence polarization competition, 75 nM recombinant eIF4E, 20 nM EDA-m7GDP-ATTO-550, IC50 class, read-out: elF4E FP.
The mark [2] stands for this setting: inhibition of eIF4E/EDA-m7GDP-ATTO-550 binding by 50%, Table 4B calculated values, read-out: IC50.
Setting [3] is: inhibition of eIF4E/EDA-m7GDP-ATTO-550 binding, calculated IC50 values, Table 4B, read-out: IC50.

In the case of `Cc1cc(-c2cc(Cl)ccc2OCCn2c(C)nc3cc(C(F)(F)F)c(N4CCS(=O)(=O)CC4)c(C#N)c3c2=O)c2scc(C(=O)O)c2n1` [compound 867], the IC50 is less than 50 nM under setting [1] and 6.61 nM under setting [2].

As to `Cc1nc2cnc(N3CCN(CCCC(F)(F)F)CC3)c(C#N)c2c(=O)n1CC#Cc1ccc(Cl)cc1-c1ccnc2c(C(=O)O)csc12` [compound 1458], under setting [3], the IC50 was 19.1 nM.

Take `N#Cc1cc2c(=O)n(CCOc3ccc(Cl)cc3-c3cc(C(=O)O)c(F)cc3F)cnc2cn1` [compound 86]: the IC50 is, setting by setting: under setting [1], greater than 1000 nM; under setting [2], 49700 nM.

On to `CCN(c1ncc2nc(C)n(CC#Cc3ccc(Cl)cc3-c3ccnc4c(C(=O)NS(=O)(=O)C5CCC5)csc34)c(=O)c2c1C#N)C1CCN(C2COC2)CC1` [compound 1748], for which the IC50 under setting [3] was 17.5 nM.

As to `Cc1nc(N2CCN(C)CC2)c(C#N)c2c(=O)n(CC#Cc3ccc(Cl)cc3-c3ccnc4c(C(=O)O)csc34)c(C)nc12` [compound 1273], the IC50 under setting [3] was 7.48 nM.

`Cc1cc(-c2cc(Cl)ccc2OCCn2c(C)nc3cc(C(F)(F)F)c(C(C)(C)O)nc3c2=O)c2scc(C(=O)O)c2n1` [compound 938]: the IC50 was less than 50 nM under setting [1] and 2.44 nM under setting [2].

For `CCc1cc(-c2cc(Cl)ccc2OCCn2c(C)nc3cc(C(F)(F)F)c(CN4CCN(C)CC4)c(C#N)c3c2=O)c2scc(C(=O)O)c2n1` [compound 637], the IC50 under setting [1] was less than 50 nM and the IC50 under setting [2] was 16.6 nM.

For the compound `Cc1nc2cnc(N3CCC34CN(CC(F)F)C4)c(C#N)c2c(=O)n1CC#Cc1ccc(Cl)cc1-c1ccnc2c(C(=O)O)csc12` [compound 1499], the IC50 under setting [3] was 27.5 nM.

Turning to `CCN(c1ncc2nc(C)n(CC#Cc3ccc(Cl)cc3-c3ccnc4c(C(=O)NS(=O)(=O)c5ccccn5)csc34)c(=O)c2c1C#N)C1CCN(C2CC(F)(F)C2)CC1` [compound 1840], under setting [3], the IC50 was 26.4 nM.

For the compound `COc1ccc(OCCn2cnc3cnc(C#N)cc3c2=O)c(-c2cccc(C(=O)O)c2)c1` [compound 124], the IC50 is, setting by setting: under setting [1], greater than 1000 nM; under setting [2], 9130 nM.

For `Cc1nc2cnc(N3CC4(C3)CN(C3CC3)C4)c(C#N)c2c(=O)n1CC#Cc1ccc(Cl)cc1-c1ccnc2c(C(=O)O)csc12` [compound 822], the IC50 by setting is: under setting [1], less than 50 nM; under setting [2], 10.7 nM.

With `Cc1cc(-c2cc(Cl)ccc2OCCn2c(C)cc3cnc(N4CCC4)c(C#N)c3c2=O)c2scc(C(=O)O)c2n1` [compound 1003], the IC50 runs as follows: under setting [1], less than 50 nM; under setting [2], 13.4 nM.

As to `CCc1cc(-c2cc(Cl)ccc2OCCn2c(C)nc3c(C)nc(N)c(C#N)c3c2=O)c2scc(C(=O)O)c2n1` [Compound 1069], the IC50 was less than 50 nM under setting [1] and 1.52 nM under setting [2].

Turning to `Cc1nc2c(F)cc(S(=O)(=O)N(C)C)c(C#N)c2c(=O)n1CCOc1ccc(Cl)cc1-c1ccnc2c(C(=O)O)csc12` [compound 288], the IC50 under setting [1] was less than 50 nM and the IC50 under setting [2] is 46.1 nM.

Take `N#Cc1cn(CCOc2ccc(Cl)cc2-c2ccnc3c(C(=O)O)csc23)c2c(=O)[nH]c(Nc3ccccc3)nc12` [compound 175]: the IC50 runs as follows: under setting [1], less than 50 nM; under setting [2], 20.4 nM.

`Cc1cc(-c2cc(Cl)ccc2OCCn2c(C)nc3cc(F)c(-c4ccccc4)c(C#N)c3c2=O)c2scc(C(=O)O)c2n1` [compound 935]: the IC50 runs as follows: under setting [1], less than 50 nM; under setting [2], 19.6 nM.

On to `Cc1cc(-c2cc(Cl)ccc2OCCn2c(C)nc3ccc(OC(C)C)c(C#N)c3c2=O)c2scc(C(=O)O)c2n1` [compound 371], for which the IC50 reads like this: under setting [1], less than 50 nM; under setting [2], 20 nM.

For the compound `CCc1ncc(C#N)c2c(=O)n(CCOc3ccc(Cl)cc3-c3cc(C)nc4c(C(=O)O)csc34)c(C)nc12` [compound 338], the IC50 was less than 50 nM under setting [1] and 45.3 nM under setting [2].

For the compound `Cc1nc2c(F)cc(C(F)F)c(C#N)c2c(=O)n1CC#Cc1ccc(Cl)cc1-c1ccnc2c(C(=O)O)csc12` [compound 557], the IC50 under setting [1] was less than 50 nM and the IC50 under setting [2] is 6.4 nM.

As for `Cc1cc(-c2cc(Cl)ccc2OCCn2c(C)nc3cnc(OC4CNC4)c(C#N)c3c2=O)c2sc(C)c(C(=O)O)c2n1` [compound 869], the IC50 under setting [1] was less than 50 nM and the IC50 under setting [2] was 25.4 nM.

Regarding `CCN(c1ncc2nc(C)n(CC#Cc3ccc(Cl)cc3-c3ccnc4c(C(=O)O)csc34)c(=O)c2c1C#N)C1CCN(C2CC(F)(F)C2)CC1` [compound 1184], the IC50 under setting [1] was less than 50 nM and the IC50 under setting [2] is 9.32 nM.

In the case of `Cc1cc(-c2cc(Cl)ccc2OCCn2c(C)nc3cc(C(F)(F)F)c(N4CCN(CCO)CC4)c(C#N)c3c2=O)c2sc(C)c(C(=O)O)c2n1` [compound 1393], the IC50 under setting [3] is 13.2 nM.

Regarding `CCN(CC)S(=O)(=O)c1ccc2nc(C)n(CCOc3ccc(Cl)cc3-c3ccnc4c(C(=O)O)csc34)c(=O)c2c1C#N` [compound 250], the IC50 under setting [1] is less than 50 nM and the IC50 under setting [2] was 43.7 nM.

With `N#Cc1cncc2nc(C(F)F)n(CCOc3ccc(Cl)cc3-c3ccnc4c(C(=O)O)csc34)c(=O)c12` [compound 39], the IC50 is 50 to 1000 nM under setting [1] and 116 nM under setting [2].

With `Cc1nc2ccc(CCN(C)C)c(C#N)c2c(=O)n1CCOc1ccc(Cl)cc1-c1cc(OC(F)F)nc2c(C(=O)O)csc12` [compound 575], the IC50 was less than 50 nM under setting [1] and 25.7 nM under setting [2].

For `Cc1nc2cnc(N(C)C3CCN([C@H]4C[C@H](OC(F)F)C4)CC3)c(C#N)c2c(=O)n1CC#Cc1ccc(Cl)cc1-c1ccnc2c(C(=O)NS(=O)(=O)c3ccccn3)csc12` [compound 1763], the IC50 under setting [3] was 23.3 nM.

With `CCN(c1ncc2nc(C)n(CC#Cc3ccc(Cl)cc3-c3ccnc4c(C(=O)NS(=O)(=O)c5ccncc5)csc34)c(=O)c2c1C#N)C1CCN([C@H]2C[C@@H](OC(F)(F)F)C2)CC1` [compound 1779], the IC50 under setting [3] was 35.1 nM.

On to `Cc1nc2cc(C(F)(F)F)cc(C#N)c2c(=O)n1CCOc1ccc(Cl)cc1-c1ccnc2c(C(=O)O)csc12` [compound 61], for which the IC50 is, setting by setting: under setting [1], less than 50 nM; under setting [2], 26.5 nM.

In the case of `Cc1cc(-c2cc(Cl)ccc2OCCn2c(C)nc3cc(Cl)c(N4CCC4)c(C#N)c3c2=O)c2scc(C(=O)O)c2n1` [compound 752], the IC50 is, setting by setting: under setting [1], less than 50 nM; under setting [2], 27.6 nM.

In the case of `N#Cc1cc(C(F)F)cc2ncn(CCOc3ccc(Cl)cc3-c3cccc(C(=O)O)c3)c(=O)c12` [compound 139], the IC50 reads like this: under setting [1], less than 50 nM; under setting [2], 34.6 nM.

On to `CCc1cc(-c2cc(Cl)ccc2OCCn2c(C)nc3cnc(-c4ccccc4)c(C#N)c3c2=O)c2scc(C(=O)O)c2n1` [compound 1016], for which the IC50 runs as follows: under setting [1], less than 50 nM; under setting [2], 1.11 nM.

As to `Cc1c(C(F)(F)F)cc(C#N)c2c(=O)n(CCOc3ccc(Cl)cc3-c3ccnc4c(C(=O)O)csc34)c(C)nc12` [compound 416], the IC50 by setting is: under setting [1], less than 50 nM; under setting [2], 23 nM.

On to `Cc1nc2cc(C(F)(F)F)c(N3CCN(C)CC3)c(C#N)c2c(=O)n1CCOc1ccc(Cl)cc1-c1cccc(C(=O)O)c1` [compound 374], for which the IC50 is less than 50 nM under setting [1] and 20.5 nM under setting [2].

As to `C#Cc1c(C(=O)O)cccc1-c1cc(Cl)ccc1OCCn1cnc2cc(C(F)(F)F)cc(C#N)c2c1=O` [compound 159], the IC50 under setting [1] was less than 50 nM and the IC50 under setting [2] is 30.9 nM.

Consider `Cc1nc2cnc(N3CCN(C)C4CC43)c(C#N)c2c(=O)n1CCOc1ccc(Cl)cc1-c1ccnc2c(C(=O)O)csc12` (stereo not drawn) [compound 1301], for which the IC50 under setting [3] was 15.5 nM.

As for `Cc1nc2cc(F)c(S(C)(=O)=O)c(C#N)c2c(=O)n1CCOc1ccc(Cl)cc1-c1ccnc2c(C(=O)O)csc12` [compound 279], the IC50 by setting is: under setting [1], less than 50 nM; under setting [2], 17.8 nM.

Take `Cc1cc(-c2cc(Cl)ccc2OCCn2c(C)nc3cc(C(F)(F)F)c(-c4ccccc4)nc3c2=O)c2scc(C(=O)O)c2n1` [compound 467]: under setting [1], the IC50 was less than 50 nM.

In the case of `CCc1cc(-c2cc(Cl)ccc2OCCn2c(C)nc3cc(C(F)(F)F)c(C4=CCN(C)CC4)c(C#N)c3c2=O)c2scc(C(=O)O)c2n1` [compound 1088], the IC50 by setting is: under setting [1], 50 to 1000 nM; under setting [2], 53.3 nM.

As for `Cc1nc2cnc(N(C)C3CCN(C)C(C(F)F)C3)c(C#N)c2c(=O)n1CCOc1ccc(Cl)cc1-c1ccnc2c(C(=O)O)csc12` (stereo not drawn) [compound 866], the IC50 is, setting by setting: under setting [1], less than 50 nM; under setting [2], 16.8 nM.

Consider `COc1cc(-c2cc(Cl)ccc2OCCn2c(C)nc3cc(C(F)(F)F)c(N4CCN(C)CC4)c(C#N)c3c2=O)cc(C(=O)O)n1` [compound 1224], for which the IC50 under setting [1] is 50 to 1000 nM.

Take `Cc1nc2cnc(N3CCC4(CC3)CN(CC(F)F)C4)c(C#N)c2c(=O)n1CC#Cc1ccc(Cl)cc1-c1ccnc2c(C(=O)NS(C)(=O)=O)csc12` [compound 1648]: the IC50 under setting [3] was 13.3 nM.

Regarding `Cc1cc(-c2cc(Cl)ccc2OCCn2c(C)nc3cc(C(F)(F)F)c(-c4ccncc4)c(C#N)c3c2=O)c2scc(C(=O)O)c2n1` [compound 629], the IC50 by setting is: under setting [1], less than 50 nM; under setting [2], 6.39 nM.
